Data on 16 compounds can be found in US12410171B2, “Tropomyosin receptor kinase (TRK) degradation compounds and methods of use” (Cullgen (Shanghai), Inc., priority 2020, dated 2025).

Like-named read-outs stand apart in the source and are kept apart here.

One test has as its system KM12 cells. Description: KM12 cell viability (CellTiter-Glo). The format is cell-based. Conditions: Homo sapiens. In short, it runs like this:
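KM12 cells seeded at 5000 per well in RPMI 1640 + 10% FBS and exposed 3 days to serial dilutions (11-point 3-fold, 8-point 3-fold from 1000 nM, or 12-point 2-fold). Viability by CellTiter-Glo; IC50 from least-squares nonlinear regression.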
Background: ATP-based viability assays read luminescence as a measure of living cells.

The target in another test is T1, TPM3-TRKA fusion protein (Homo sapiens, UniProt P04629).
T1 construct: The resulted chimeric proteins always retain the kinase domain of TRK proteins; TPM3 (fusion partner, N-terminal part of tropomyosin alpha-3, P06753); endogenous in cells; host or cells: KM12 colon cancer cells; the other entry of the earlier key: TPM3 (P06753, Tropomyosin alpha-3 chain)
T1 sequence (P04629 with tags, fused parts or gaps): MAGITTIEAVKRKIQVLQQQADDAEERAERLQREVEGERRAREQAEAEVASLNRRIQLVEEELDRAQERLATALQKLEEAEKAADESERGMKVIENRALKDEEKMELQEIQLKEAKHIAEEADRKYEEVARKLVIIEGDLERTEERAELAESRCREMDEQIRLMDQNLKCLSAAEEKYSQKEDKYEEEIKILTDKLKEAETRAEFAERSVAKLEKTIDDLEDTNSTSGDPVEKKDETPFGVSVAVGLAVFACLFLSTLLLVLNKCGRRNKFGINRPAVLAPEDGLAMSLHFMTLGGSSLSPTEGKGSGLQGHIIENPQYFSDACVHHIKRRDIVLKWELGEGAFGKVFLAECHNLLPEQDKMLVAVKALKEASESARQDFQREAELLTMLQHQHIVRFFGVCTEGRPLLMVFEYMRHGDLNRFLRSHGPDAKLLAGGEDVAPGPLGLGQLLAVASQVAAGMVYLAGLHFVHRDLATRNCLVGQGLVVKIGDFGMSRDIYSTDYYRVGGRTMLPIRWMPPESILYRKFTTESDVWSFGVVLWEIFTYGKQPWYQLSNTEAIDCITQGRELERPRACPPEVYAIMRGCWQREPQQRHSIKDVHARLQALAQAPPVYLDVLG
Description: TPM3-TRKA fusion protein levels in KM12 cells (Western blot). In kind it is cell-based. The following applies: read-out: Degradation (at 10 nM). In short, it runs like this: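 KM12 colon cancer cells were treated with DMSO or compounds at 0.1–100 nM, 0.4–30 nM or other stated concentrations for 4, 8–16 or 16 h. RIPA lysates were BCA-normalized and resolved by SDS-PAGE. TPM3-TRKA was detected by chemiluminescent Western blot, with bands quantified by densitometry.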

Setting [1] is: 72 h, KM12 cell viability, CellTiter-Glo, three days treatment, read-out: IC50.
The mark [2] stands for this setting: 16 h, TPM3-TRKA degradation in KM12 cells at 10 nM compound, category of percentage degradation.

As for `O=C1CCC(N2Cc3cc(C#CC4CCN(c5ccc(C(=O)Nc6n[nH]c7ccc(Cc8cc(F)cc(F)c8)cc67)c(NC6CCOCC6)c5)CC4)ccc3C2=O)C(=O)N1` (centres unmarked) [TR-323, N-(5-(3,5-Difluorobenzyl)-1H-indazol-3-yl)-4-(4-((2-(2,6-dioxopiperidin-3-yl)-1-oxoisoindolin-5-yl)ethynyl)piperidin-1-yl)-2-((tetrahydro-2H-pyran-4-yl)amino)benzamide], the IC50 (in general, the midpoint of a concentration-inhibition curve) in the test with KM12 cells (setting [1]) is 31 nM. Moreover, on TPM3-TRKA fusion protein (KM12, 16 h), the percent degradation of TPM3-TRKA protein at 0.01 µM was > 80%.

On to `Cn1c(=O)n(C2CCC(=O)NC2=O)c2ccc(NCCN3CCN(c4ccc(C(=O)Nc5n[nH]c6ccc(Cc7cc(F)cc(F)c7)cc56)c(NC5CCOCC5)c4)CC3)cc21` (centres unmarked) [TR-324, N-(5-(3,5-difluorobenzyl)-1H-indazol-3-yl)-4-(4-(2-((1-(2,6-dioxopiperidin-3-yl)-3-methyl-2-oxo-2,3-dihydro-1H-benzo[d]imidazol-5-yl)amino)ethyl)piperazin-1-yl)-2-((tetrahydro-2H-pyran-4-yl)amino)benzamide], for which the midpoint of inhibition with KM12 cells (KM12, 72 h), the IC50, lay at 1.3 nM. Moreover, the percent degradation of TPM3-TRKA protein at 0.01 µM on TPM3-TRKA fusion protein (KM12, 16 h) was > 80%.

Compound `Cn1c(=O)n(C2CCC(=O)NC2=O)c2cccc(NCCN3CCN(c4ccc(C(=O)Nc5n[nH]c6ccc(Cc7cc(F)cc(F)c7)cc56)c(NC5CCOCC5)c4)CC3)c21` (centres unmarked) [TR-325, N-(5-(3,5-difluorobenzyl)-1H-indazol-3-yl)-4˜ (4-(2-((1-(2,6-dioxopiperidin-3-yl)-3-methyl-2-oxo-2,3-dihydro-1H-benzo[d]imidazol-4-yl)amino)ethyl)piperazin-1-yl)-2-((tetrahydro-2H-pyran-4-yl)amino)benzamide] registered an IC50 with KM12 cells (KM12, 72 h) of 13 nM. Moreover, the percent degradation of TPM3-TRKA protein at 0.01 µM on TPM3-TRKA fusion protein (KM12, 16 h) is > 80%.

Turning to `O=C1CCC(n2nnc3cccc(N4CC(CN5CCN(c6ccc(C(=O)Nc7n[nH]c8ccc(Cc9cc(F)cc(F)c9)cc78)c(NC7CCOCC7)c6)CC5)C4)c3c2=O)C(=O)N1` (centres unmarked) [TR-326, N-(5-(3,5-Difluorobenzyl)-1H-indazol-3-yl)-4-(4-((1˜ (3-(2,6-dioxopiperidin-3-yl)-4-oxo-3,4-dihydrobenzo[d][1,2,3]triazin-5-yl)azetidin-3-yl)methyl)piperazin-1-yl)-2-((tetrahydro-2H-pyran-4-yl)amino)benzamide], in the test with KM12 cells (setting [1]), the IC50 is 14 nM. For the same compound, on TPM3-TRKA fusion protein (setting [2]), the percent degradation of TPM3-TRKA protein at 0.01 µM fell in the range of 50 to 80%.

With `O=C1CCC(n2nnc3cccc(N4CC(CCN5CCN(c6ccc(C(=O)Nc7n[nH]c8ccc(Cc9cc(F)cc(F)c9)cc78)c(NC7CCOCC7)c6)CC5)C4)c3c2=O)C(=O)N1` (centres unmarked) [TR-327, N-(5-(3,5-Difluorobenzyl)-1H-indazol-3-yl)-4-(4-(2-(1-(3-(2,6-dioxopiperidin-3-yl)-4-oxo-3,4-dihydrobenzo[d][1,2,3]triazin-5-yl)azetidin-3-yl)ethyl)piperazin-1-yl)-2-((tetrahydro-2/-pyran-4-yl)amino)benzamide], the IC50 in the test on KM12 cells (setting [1]) was 13.3 nM. Further, the percent degradation of TPM3-TRKA protein at 0.01 µM on TPM3-TRKA fusion protein (setting [2]) was 50 to 80%.

Consider `O=C1CCC(N2C(=O)c3ccc(C4CN(CC5CCN(c6ccc(C(=O)Nc7n[nH]c8ccc(Cc9cc(F)cc(F)c9)cc78)c(NC7CCOCC7)c6)CC5)C4)cc3C2=O)C(=O)N1` (centres unmarked) [TR-328, N-(5-(3,5-Difluorobenzyl)-1H-indazol-3-yl)-4-(4-((3˜ (2-(2,6-dioxopiperidin-3-yl)-1,3-dioxoisoindolin-5-yl)azetidin-1-yl)methyl)piperidin-1-yl)-2-((tetrahydro-2/7-pyran-4-yl)amino)benzamide], for which the IC50 in the test with KM12 cells (setting [1]) amounted to 35.9 nM. Besides, the percent degradation of TPM3-TRKA protein at 0.01 µM at TPM3-TRKA fusion protein (setting [2]) was > 80%.

Consider `O=C1CCC(N2Cc3cc(C4CN(CC5CCN(c6ccc(C(=O)Nc7n[nH]c8ccc(Cc9cc(F)cc(F)c9)cc78)c(NC7CCOCC7)c6)CC5)C4)ccc3C2=O)C(=O)N1` (centres unmarked) [TR-330, N-(5-(3,5-Difluorobenzyl)-1H-indazol-3-yl)-4-(4-((3-(2-(2,6-dioxopiperidin-3-yl)-1-oxoisoindolin-5-yl)azetidin-1-yl)methyl)piperidin-1-yl)-2-((tetrahydro-2H-pyran-4-yl)amino)benzamide], for which, in the test with KM12 cells (setting [1]), the IC50 turned out to be 28.5 nM. Besides, the percent degradation of TPM3-TRKA protein at 0.01 µM on TPM3-TRKA fusion protein (setting [2]) is > 80%.

Turning to `O=C1CCC(N2Cc3cc(N4CC(N5CCN(c6cccc(-c7cnc8ccc(N9CCC[C@@H]9c9cccc(F)c9)nn78)n6)CC5)C4)ccc3C2=O)C(=O)N1` (stereo partly drawn) [TR-331, 3-(5-(3-(4-(6-(6-((R)-2-(3-fluorophenyl)pyrrolidin-1-yl)imidazo[1,2-b]pyridazin-3-yl)pyridin-2-yl)piperazin-1-yl)azetidin-1-yl)-1-oxoisoindolin-2-yl)piperidine-2,6-dione], in the test with KM12 cells (setting [1]), the IC50 came to 1.6 nM. In addition, the percent degradation of TPM3-TRKA protein at 0.01 µM on TPM3-TRKA fusion protein (setting [2]) was > 80%.

Consider `O=C1CCC(N2Cc3cc(N4CC(N5CCN(c6ccc(C(=O)Nc7n[nH]c8ccc(Cc9cc(F)cc(F)c9)cc78)c(NC7CCOCC7)c6)CC5)C4)ccc3C2=O)C(=O)N1` (centres unmarked) [TR-332, N-(5-(3,5-difluorobenzyl)-1H-indazol-3-yl)-4-(4-(1-(2-(2,6-dioxopiperidin-3-yl)-1-oxoisoindolin-5-yl)azetidin-3-yl)piperazin-1-yl)-2-((tetrahydro-2H-pyran-4-yl)amino)benzamide], for which the IC50 in the test on KM12 cells (setting [1]) amounted to 1.7 nM. The percent degradation of TPM3-TRKA protein at 0.01 µM at TPM3-TRKA fusion protein (setting [2]) was > 80%.

Regarding `Cc1nc2cccc(N3CC(CN4CCN(c5ccc(C(=O)Nc6n[nH]c7ccc(Cc8cc(F)cc(F)c8)cc67)c(NC6CCOCC6)c5)CC4)C3)c2c(=O)n1C1CCC(=O)NC1=O` (centres unmarked) [TR-333, N-(5-(3,5˜Difluorobenzyl)-1H-indazol-3-yl)-4-(4-((1-(3-(2,6-dioxopiperidin-3-yl)-2-methyl-4-oxo-3,4-dihydroquinazolin-5-yl)azetidin-3-yl)methyl)piperazin-1-yl)-2-((tetrahydro-2H-pyran-4-yl)amino)benzamide], the IC50 with KM12 cells (setting [1]) worked out at 10.5 nM. Further, the percent degradation of TPM3-TRKA protein at 0.01 µM on TPM3-TRKA fusion protein (setting [2]) was 50 to 80%.

Turning to `Cc1nc2cccc(N3CC(CCN4CCN(c5ccc(C(=O)Nc6n[nH]c7ccc(Cc8cc(F)cc(F)c8)cc67)c(NC6CCOCC6)c5)CC4)C3)c2c(=O)n1C1CCC(=O)NC1=O` (centres unmarked) [TR-334, N-(5-(3,5-Difluorobenzyl)-1H-indazol-3-yl)-4-(4-(2-(1-(3-(2,6-dioxopiperidin-3-yl)-2-methyl-4-oxo-3,4-dihydroquinazolin-5-yl)azetidin-3-yl)ethyl)piperazin-1-yl)-2-((tetrahydro-2/-pyran-4-yl)amino)benzamide], the IC50 in the test with KM12 cells (setting [1]) came to 24.6 nM. Further, the percent degradation of TPM3-TRKA protein at 0.01 µM at TPM3-TRKA fusion protein (setting [2]) was in the range of 50 to 80%.

Take `O=C1CCC(N2Cc3ccc(N4CC(N5CCN(c6cccc(-c7cnc8ccc(N9CCC[C@@H]9c9cccc(F)c9)nn78)n6)CC5)C4)cc3C2=O)C(=O)N1` (stereo partly drawn) [TR-335, 3-(6-(3-(4-(6-(6-((R)-2-(3-fluorophenyl)pyrrolidin-1-yl)imidazo[1,2-b]pyridazin-3-yl)pyridin-2-yl)piperazin-1-yl)azetidin-1-yl)-1-oxoisoindolin-2-yl)piperidine-2,6-dione]: the IC50 in the test with KM12 cells (setting [1]) is 8.3 nM. The percent degradation of TPM3-TRKA protein at 0.01 µM on TPM3-TRKA fusion protein (setting [2]) lay within 50 to 80%.

Regarding `O=C1CCC(N2Cc3ccc(N4CC(N5CCN(c6ccc(C(=O)Nc7n[nH]c8ccc(Cc9cc(F)cc(F)c9)cc78)c(NC7CCOCC7)c6)CC5)C4)cc3C2=O)C(=O)N1` (stereo not drawn) [TR-336, N—(S-(3,5-difluorobenzyl)-1H-indazol-3-yl)-4-(4-(1-(2-(2,6-dioxopiperidin-3-yl)-3-oxoisoindolin-5-yl)azetidin-3-yl)piperazin-1-yl)-2-((tetrahydro-2H-pyran-4-yl)amino)benzamide], in the test on KM12 cells (setting [1]), the IC50 came to 3.2 nM. The percent degradation of TPM3-TRKA protein at 0.01 µM on TPM3-TRKA fusion protein (setting [2]) was > 80%.

Turning to `O=C1CCC(N2C(=O)c3ccc(N4CC(NC5CCN(c6ccc(C(=O)Nc7n[nH]c8ccc(Cc9cc(F)cc(F)c9)cc78)c(NC7CCOCC7)c6)CC5)C4)cc3C2=O)C(=O)N1` (centres unmarked) [TR-337, N-(5-(3,5-difluorobenzyl)-1H-indazol-3-yl)-4-(4-((1-(2-(2,6-dioxopiperidin-3-yl)-1,3-dioxoisoindolin-5-yl)azetidin-3-yl)amino)piperidin-1-yl)-2-((tetrahydro-2H-pyran-4-yl)amino)benzamide], the 50% inhibitory concentration (IC50) in the test with KM12 cells (setting [1]) came out at 5.5 nM. Besides, on TPM3-TRKA fusion protein (setting [2]), the percent degradation of TPM3-TRKA protein at 0.01 µM was > 80%.

For `O=C1CCC(N2Cc3cc(C4CN(C5CCN(c6ccc(C(=O)Nc7n[nH]c8ccc(Cc9cc(F)cc(F)c9)cc78)c(NC7CCOCC7)c6)CC5)C4)ccc3C2=O)C(=O)N1` (centres unmarked) [TR-338, N-(5-(3,5-difluorobenzyl)-1H-indazol-3-yl)-4-(4-(3-(2-(2,6-dioxopiperidin-3-yl)-1-oxoisoindolin-5-yl)azetidin-1-yl)piperidin-1-yl)-2-((tetrahydro-2H-pyran-4-yl)amino)benzamide], in the test with KM12 cells (setting [1]), the IC50 was 1.3 nM. Moreover, at TPM3-TRKA fusion protein (KM12, 16 h), the percent degradation of TPM3-TRKA protein at 0.01 µM was > 80%.

As for `O=C1CCC(N2C(=O)c3ccc(C4CN(C5CCN(c6ccc(C(=O)Nc7n[nH]c8ccc(Cc9cc(F)cc(F)c9)cc78)c(NC7CCOCC7)c6)CC5)C4)cc3C2=O)C(=O)N1` (centres unmarked) [TR-339, N-(5-(3,5-difluorobenzyl)-1H-indazol-3-yl)-4-(4-(3-(2-(2,6-dioxopiperidin-3-yl)-1,3-dioxoisoindolin-5-yl)azetidin-1-yl)piperidin-1-yl)-2-((tetrahydro-2H-pyran-4-yl)amino)benzamide], the IC50 with KM12 cells (setting [1]) is 8.1 nM. The percent degradation of TPM3-TRKA protein at 0.01 µM on TPM3-TRKA fusion protein (setting [2]) was > 80%.
